Assay results published in patent US20140135272A1, “NOVEL ZINC FINGER-LIKE PEPTIDE COMPOSITIONS AS POTENT AGENTS IN CANCER PREVENTION AND TREATMENT” (priority 2011, published 2014).

How the values were obtained:
Assay type in all cases: in vivo, nude mice
[1] = tested on: malignant prostate cancer DU145 cells; assay: Example 9: peptide pre-injection, malignant prostate cancer DU145 cells inoculated three months later, tumor volumes; conditions: peptide 2 mM, 100 μl i.v. per week for 3 weeks, vs H2O control
Method: (§1) In the following examples, 8-week nude mice were used as host subjects to perform in vivo experiments. The nude mice were placed in room temperature and suitable humidity, and supplied with sterile water and standard food for 2 consecutive weeks before performing experiments. Then, the nude mice were injected with zinc finger-like peptide and tumor cells. The detailed processes for the experiments are described as follows.
(§2) First, manually synthesized zinc finger-like peptide (Genemed Synthesis Inc., San Antonio, Tex., USA) was resuspended in degassed purified water to obtain 1-5 mM of zinc finger-like peptide solution (100 μl). Herein, the solution for suspending the zinc finger-like peptide is not particularly limited. Preferably, the zinc finger-like peptide is resuspended in degassed purified water, in order to prevent the self-polymerization of the zinc finger-like peptide and loss its ability to inhibit tumor cell growth.
(§3) In the present experimental group, zinc finger-like peptide with sequence shown in SEQ ID NO: 1 was injected into nude mice.
Nude mice were injected with an intravenous injection of peptide (2 mM, 100 μl) via tail veins per week for 3 consecutive weeks, followed by inoculating malignant prostate cancer DU145 cells (2 million cells/100 μl medium) at both the right and left flanks three months later. […]

[2] = tested on: prostatic epithelial cells PZ-HPV-7; assay: Example 10: peptide pre-injection, then prostatic epithelial cells PZ-HPV-7 inoculation, tumor volumes; conditions: peptide 2 mM, 100 μl i.v. per week for 3 weeks; PZ-HPV-7 inoculated on the 20th and 90th day; vs H2O control
Method: as §1, §2, §3
Nude mice were injected with an intravenous injection of peptide (2 mM, 100 μl) via tail veins per week for 3 consecutive weeks, followed by inoculating prostatic epithelial cells PZ-HPV-7 (2 million cells/100 μl medium) at both the right and left flanks on the 20th day and the 90th day. […]

[3] = tested on: malignant melanoma B 16F10; assay: Example 4: peptide variants pre-injected, then malignant melanoma B16F10 inoculation, tumor volumes and death; conditions: peptide 2 mM, 100 μl i.v. per week for 2 weeks before B16F10 inoculation
Method: as §1, §2
Nude mice received an intravenous injection of peptide (2 mM, 100 μl) via tail veins per week for 2 consecutive weeks, followed by inoculating malignant melanoma B 16F10 (2 million cells/100 μl PBS) at both the right and left flanks. The tumor volumes (mm^3) were observed daily during the whole experiment.
as §3
In the present experimental group, zinc finger-like peptide with sequence shown in SEQ ID NO: 1, in which the fifth amino acid, serine was phosphorylated, and injected into nude mice.
In the present experimental group, zinc finger-like peptide with sequence shown in SEQ ID NO: 6 was injected into nude mice.
In the present experimental group, zinc finger-like peptide with sequence shown in SEQ ID NO: 6, in which the fourth amino acid serine was phosphorylated, and injected nude mice.
In the control group, H2O (100 μl) was injected into nude mice.

[4] = tested on: malignant melanoma B16F10; assay: Example 3: peptide pre-injection, then malignant melanoma B16F10 inoculation, tumor volumes; conditions: peptide 2 mM, 100 μl sterile water i.v. per week for 3 weeks before B16F10 inoculation; vs H2O control
Method: as §1, §2
Herein, zinc finger-like peptide with sequence shown in SEQ ID NO: 1 is injected into nude mice.
With this experimental group, nude mice received an intravenous injection of peptide (2 mM, 100 μl sterile water) via tail veins per week for 3 consecutive weeks, followed by inoculation of malignant melanoma B16F10 (2 million cells/100 μl PBS) at both the right and left flanks. The tumor volumes (mm^3) were observed daily during the whole experiment. […]

BCC cells = assay: Example 2: peptide pre-injection plus boost injection, BCC cell inoculation, tumor volumes; conditions: peptide 2 mM, 100 μl i.v. per week for 3 weeks before BCC inoculation; boost per week for 3 weeks 2 months later; vs H2O control
Method: as §1, §2, §3
Nude mice were injected with an intravenous injection of peptide (2 mM, 100 μl PBS) via tail veins per week for 3 consecutive weeks, followed by inoculating BCC cells (2 million cells/100 μl PBS) at both the right and left flanks. 2 months later, boost injection of peptide was carried out per week for 3 consecutive weeks. […]

[5] = tested on: breast carcinoma MDA-MB-468; assay: Example 7: peptide pre-injection, then breast carcinoma MDA-MB-468 inoculation, tumor volumes; conditions: peptide 3 mM, 100 μl i.v. per week for 3 weeks before MDA-MB-468 inoculation; vs H2O control
Method: as §1, §2, §3
Nude mice were injected with an intravenous injection of peptide (3 mM, 100 μl) via tail veins per week for 3 consecutive weeks, followed by inoculating breast carcinoma MDA-MB-468 (2 million cells/100 μl medium) at both the right and left flanks. The tumor volumes (mm^3) were observed daily during the whole experiment. […]

[6] = tested on: malignant glioma U87-MG cells; assay: Example 11: peptide pre-injection, malignant glioma U87-MG cells inoculated 1 month later, tumor volumes; conditions: for growth and proliferation of tumor cells (tumor volumes): 100 μl i.v. per week for 3 weeks, U87-MG inoculated 1 month later, vs H2O control
Method: as §1, §2
The process of the present control group was the same as that of the experimental group, except that the zinc finger-like peptide of the experimental group was substituted with H2O (100 μl) in the present control group. The result is shown in FIG. 11A, which is a curve representing the tumor volumes of mice.
as §3
Nude mice were injected with an intravenous injection of peptide (2 mM, 100 μl) via tail veins per week for 3 consecutive weeks, followed by inoculating malignant glioma U87-MG cells (2 million cells/100 μl medium) at both the right and left flanks 1 month later. The tumor volumes (mm^3) were observed daily during the whole experiment. The result is shown in FIG. 11B, which is a curve representing the tumor volumes of mice.
The process of the present control group was the same as that of the experimental group 1, except that the concentration of the zinc finger-like peptide is 4 mM. The result is shown in FIG. 11C, which is a curve representing the tumor volumes of mice.

RRSSSCK [SEQ ID NO: 1, zinc finger-like peptide, manually synthesized]
growth and proliferation of tumor cells (tumor volumes) [1]: the growth and proliferation of tumor cells were not observed | growth and proliferation of tumor cells (tumor volumes) [2]: the growth and proliferation of tumor cells were not observed | skin cancer completely cured after [3]: 115 days | tumor growth / activity on skin cancer treatment ([3]; vs H2O control): can effectively inhibit the growth of tumor cells | tumor growth (tumor volumes) [4]: can inhibit the growth of skin melanoma on nude mice | tumor growth (tumor volumes) (BCC cells): can prevent and inhibit the growth of cancer cell | growth and proliferation of tumor cells (tumor volumes) [5]: the growth and proliferation of tumor cells were not observed | concentration dependence of suppression on tumor cell growth ([6]; 2 mM vs 4 mM peptide, U87-MG): the suppression on tumor cell growth was getting significant as the concentration of the zinc finger-like peptide increased | growth and proliferation of tumor cells (tumor volumes) ([6]; peptide 2 mM): slower than that observed in the control group | growth and proliferation of tumor cells (tumor volumes) ([6]; peptide 4 mM): slower than that observed in the control group
